# According to US11884710B2, “Peptide compounds and methods of use in wound healing” (priority 2013, dated 2024):
# B1: CAP37: cationic antimicrobial protein of Mr 37 kDa; recombinant CAP37 produced in human embryonic kidney (HEK) 293 cells (protein)
# chain: IVGGRKARPRQFPFLASIQNQGRHFCGGALIHARFVMTAASCFQSQNPGVSTVVLGAYDLRRRERQSRQTFSISSMSENGYDPQQNLNDLMLLQLDREANLTSSVTILPLPLQNATVEAGTRCQVAGWGSQRSGGRLSRFPRFVNVTVTPEDQCRPNNVCTGVLTRRGGICNGDGGTPLVCEGLAHGVASFSLGPCGRGPDFFTRVALFRDWIDGVLNNPGP
# What was measured:
# [1] = test system: Acinetobacter baumannii ATCC BAA-747; assay: In vitro bactericidal assay, A. baumannii ATCC BAA-747 (FIGS. 10-11); type: cell-based; details: for reduction of CFU/ml: highest peptide concentration
# Method: (§1) Each of the test peptides was used at 25, 12.5 6.25 and 3.12 μM. The gentamicin was used at 4 μg/ml. 1×10^6/ml Acinetobacter baumannii ATCC® BAA-747™ (American Type Culture Collection, Manassas, Va.) were incubated with the peptides, negative buffer control (tryptone saline), and positive control gentamicin for 60 minutes at pH 5.5. 50 μl aliquots were plated out on agar plates and incubated overnight. Colony forming units were counted after overnight incubation and CFU/ml calculated.
# as §1, with “7.2.” for “5.5.”
# For FIGS. 10-13, in vitro bactericidal assays were performed using a starting inoculum of 1×10^6 CFU/ml of the bacterial suspension. The CFU remaining at the end of the 60-180 minute incubation was determined, and the data was plotted as log reduction in CFU/ml.
# In particular, each of the test peptides (CAP37 peptides 120-146WR, 120-146WH, and 95-122 (SEQ ID NOS:30, 31, and 26, respectively)) was used at 25, 12.5, 6.25, and 3.12 μM. Gentamicin was used at 4 μg/ml. 1×10^6/ml Acinetobacter baumannii ATCC® BAA-747™ or Pseudomonas aeruginosa ATCC® 27853™ (American Type Culture Collection, Manassas, Va.) were incubated with the peptides, negative buffer control (tryptone saline), and positive control gentamicin at pH 5.5 or 7.2. A 60 minute incubation was used for Acinetobacter baumannii ATCC® BAA-747™, while a 180 minute incubation was used for Pseudomonas aeruginosa ATCC® 27853™. 50 μl aliquots were plated out on agar plates and incubated overnight. Colony forming units were counted after overnight incubation and CFU/ml calculated.
# [2] = test system: mouse corneal epithelium abrasion; assay: In vivo model of corneal wound healing
# Method: (§2) The mouse corneal epithelium was removed using the AlgerBrush II (The Alger Company, Inc., Lago Vista, Tex.), and corneal abrasions were treated at 0 hours and 16 hours with peptide 95-122 (10^−5 M), or were left untreated in 0.9% sodium chloride (saline vehicle) Wound healing was monitored at 0, 16, and 24 hours using fluorescein staining and a camera-equipped inverted microscope. Data are represented as the percentage of wound closure at 16 hours and 24 hours and are expressed as means±SEM. The data are representative of at least 6 mice per group. *P<0.05 by unpaired t-test as compared to vehicle (0.9% sodium chloride) treated controls.
# as §2, with “II,” for “II (The Alger Company, Inc., Lago Vista, Tex.),”, “0” for “0 hours”, “120-146WH (10^−8 M or 10^−6” for “95-122 (10^−5”, “vehicle control).” for “vehicle)”, “group. ***P<0.001,” for “group.”
# (A) The epithelium of the mouse cornea was removed using the AlgerBrush II, and corneal abrasions were treated at 0 and 16 hours with HB-EGF (250 ng/ml), rCAP37 (250 ng/ml), or vehicle control (normal saline). Wound closure was monitored at 0, 16, 24, and 48 hours using fluorescein staining and a camera-equipped inverted microscope. Data are represented as the percentage of wound closure and are expressed as mean±SEM. The data are representative of at least 6 mice per group. The percentage of wound closure in response to treatment was compared to vehicle-treated controls by unpaired t-test, **P<0.01, *P<0.05. (B) Representative images of mouse corneal wounds are shown at 0, 16, 24, and 48 hours following treatment with vehicle, HB-EGF, and CAP37. Black dotted lines indicate the wound edge.
# In vivo model of corneal wound healing: The in vivo model of wound healing was carried out using a disposable biopsy punch (2 mm, Miltex, York, Pa.) to demarcate the mouse cornea and a 0.5 mm burr using the AlgerBrush II (The Alger Company, Inc., Lago Vista, Tex.) to remove the corneal epithelium.
# In vivo model of wound healing: Mice were anesthetized using ketamine (100 mg/kg; Bionichepharma, LLC., St. Lake Forrest, Ill.) and xylazine ([…]; Rompun; Bayer Corp., Shawnee Mission, Kans.), and the right cornea was wounded as follows. A disposable biopsy punch (2 mm, Miltex, York, Pa.) was used to demarcate the mouse cornea. The corneal epithelium was carefully removed within the 2 mm demarcated area with a 0.5 mm burr using the AlgerBrush II (The Alger Company, Inc., Lago Vista, Tex.). The corneal abrasions were treated at 0 and 16 hours with HB-EGF (250 ng/ml), rCAP37 (250 ng/ml), or vehicle control (0.9% sodium chloride, pH 5.5, Baxter, Deerfield, Ill.). Corneal abrasions were visualized using sterile fluorescein sodium ophthalmic strips USP (FLUORETS®, Chauvin Laboratory, Aubenas, France) dampened with sterile PBS. […] The areas of the open wound were quantitated using ImageJ software (US National Institutes of Health), and the results were reported as the percentage of wound closure.
molecule,measurement,setting,value
GTRCQVAGWGSWHSGGRLSRFPRFVNV (derivative of peptide of CAP37 protein) [Peptide 120-146WH],reduction of CFU/ml,"[1]; pH 5.5, 60 minutes",~4 logs
same,reduction of CFU/ml,"[1]; pH 7.2, 60 minutes",~5.5 logs
same,"bactericidal activity, in words",[1]; peptide at 25 μM,highly active
same,"amount of corneal wound healing vs vehicle, in words","[2]; peptide 10^−8 M or 10^−6 M at 0 and 16 hours, read at 16 and 24 hours",significantly greater
GTRCQVAGWGSWRSGGRLSRFPRFVNV (derivative of peptide of Homo sapiens CAP37 protein) [Peptide 120-146WR],reduction of CFU/ml,"[1]; pH 5.5, 60 minutes",~4 logs
same,reduction of CFU/ml,"[1]; pH 7.2, 60 minutes",~5.5 logs
same,"bactericidal activity, in words",[1]; peptide at 12.5 μM,highly active
same,"bactericidal activity, in words",[1]; peptide at 25 μM,highly active
LDREANLTSSVTILPLPLQNATVEAGTR (listed as Homo sapiens) [Peptide 95-122],"bactericidal activity, in words","[1]; pH 5.5, 60 minutes, peptides 3.12-25 μM, gentamicin 4 μg/ml",not active
same,"bactericidal activity, in words","[1]; pH 7.2, 60 minutes, peptides 3.12-25 μM, gentamicin 4 μg/ml",not active
same,"corneal wound closure, in words","[2]; peptide 10^−5 M at 0 and 16 hours, read at 16 and 24 hours",promotes corneal wound healing in vivo
B1,reduction of corneal wound size,"[2]; CAP37 250 ng/ml at 0 and 16 hours, at 16 hours",71%
same,corneal wound closure,"[2]; CAP37 250 ng/ml at 0 and 16 hours, by 24 hours",83%
